# According to ChEMBL document CHEMBL1201862, “PubChem BioAssay data set” (2004):
# Activity calls are given as the source filed them.
# Experiments:
# HEK293 [1] = assay: cells; assay type: functional, cell-based; conditions: Homo sapiens
# HEK293 [2] = assay: NOD2 signaling inhibitors in MDP-stimulated cells, cell-based, uHTS, luminescence (AID 2001); assay type: functional; conditions: Homo sapiens
# HEK293 [3] = assay: NOD1 signaling inhibitors, primary screen, cell-based, luminescence, uHTS (AID 1578); assay type: functional; conditions: Homo sapiens
# HEK293 [4] = assay: cells; assay type: functional, cell-based; conditions: Homo sapiens; remark: listed apart in the source
# SN12K1 = assay: cells; assay type: functional; conditions: Homo sapiens
# P388 = assay: cells; assay type: functional; conditions: Mus musculus
# P388/ADR = assay: cells; assay type: functional; conditions: Mus musculus
# Phospholipase A2 = Phospholipase A2 (Homo sapiens, UniProt P04054); assay type: functional;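 also: confirmatory dose-response counterscreen on phospholipase A2, testing hits that came from an ultra-high-throughput screen for ATG4B inhibitors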
# Cysteine protease ATG4B = molecular target: T1, Cysteine protease ATG4B (Homo sapiens, UniProt Q9Y4P1); assay type: functional;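 also: Fluorescence-based dose-response confirmation assay measuring inhibition of ATG4B activity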
# T1 sequence (Q9Y4P1 whole entry): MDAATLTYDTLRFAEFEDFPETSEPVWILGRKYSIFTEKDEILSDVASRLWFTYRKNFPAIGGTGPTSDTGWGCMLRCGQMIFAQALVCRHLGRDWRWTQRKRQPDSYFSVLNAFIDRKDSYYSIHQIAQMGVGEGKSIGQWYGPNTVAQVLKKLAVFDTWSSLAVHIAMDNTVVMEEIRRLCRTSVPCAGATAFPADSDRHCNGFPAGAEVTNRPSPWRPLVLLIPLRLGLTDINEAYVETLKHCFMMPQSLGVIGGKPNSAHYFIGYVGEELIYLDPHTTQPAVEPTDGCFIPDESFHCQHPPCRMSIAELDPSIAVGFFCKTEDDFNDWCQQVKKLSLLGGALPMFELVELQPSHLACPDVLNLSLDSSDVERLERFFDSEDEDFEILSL
# Protein RecA = molecular target: T2, Protein RecA (Mycobacterium tuberculosis, UniProt P9WHJ3); assay: Fluorescence Cell-Free Homogeneous Dose Retest to Identify Inhibitors of RecA-Intein Splicing Activity. [Related pubchem assays (depositor defined):AID2097, AID2223, AID489010, AID492950]; assay type: functional
# T2 sequence (P9WHJ3 whole entry): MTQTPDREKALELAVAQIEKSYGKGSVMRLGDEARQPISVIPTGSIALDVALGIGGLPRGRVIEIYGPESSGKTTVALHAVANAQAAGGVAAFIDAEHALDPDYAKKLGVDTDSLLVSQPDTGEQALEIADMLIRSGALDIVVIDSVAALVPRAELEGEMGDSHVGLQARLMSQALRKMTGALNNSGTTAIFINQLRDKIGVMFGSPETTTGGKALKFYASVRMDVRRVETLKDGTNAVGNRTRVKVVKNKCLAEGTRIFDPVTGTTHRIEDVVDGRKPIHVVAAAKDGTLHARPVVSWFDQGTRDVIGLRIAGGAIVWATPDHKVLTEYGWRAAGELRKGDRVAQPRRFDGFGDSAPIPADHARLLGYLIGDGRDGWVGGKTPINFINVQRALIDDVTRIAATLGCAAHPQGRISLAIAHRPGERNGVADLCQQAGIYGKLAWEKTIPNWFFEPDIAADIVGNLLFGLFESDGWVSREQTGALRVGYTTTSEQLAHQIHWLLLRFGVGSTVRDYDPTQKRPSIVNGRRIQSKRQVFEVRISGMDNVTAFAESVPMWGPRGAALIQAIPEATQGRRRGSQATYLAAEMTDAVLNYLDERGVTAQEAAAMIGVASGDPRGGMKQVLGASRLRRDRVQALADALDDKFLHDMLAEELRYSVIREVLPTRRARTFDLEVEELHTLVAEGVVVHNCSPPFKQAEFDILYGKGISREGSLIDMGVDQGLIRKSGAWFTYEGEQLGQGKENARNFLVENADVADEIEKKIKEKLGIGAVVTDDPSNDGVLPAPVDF
# [5] = molecular target: Peroxisome proliferator-activated receptor gamma/Nuclear receptor coactivator 3 (Homo sapiens, UniProt P37231); assay type: functional;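 also: agonist potency for raising coactivator recruitment to the receptor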
# [6] = molecular target: Peroxisome proliferator-activated receptor gamma/Nuclear receptor coactivator 2 (Homo sapiens, UniProt P37231); assay type: functional;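 also: agonist potency for raising coactivator recruitment to the receptor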
# [7] = molecular target: T3, Replicative DNA helicase DnaB (Mycobacterium tuberculosis, UniProt P9WMR3); assay: DnaB intein splicing inhibitors, dose response, biochemical, cell-free fluorescence (AID 449749); assay type: functional
# T3 sequence (P9WMR3 whole entry): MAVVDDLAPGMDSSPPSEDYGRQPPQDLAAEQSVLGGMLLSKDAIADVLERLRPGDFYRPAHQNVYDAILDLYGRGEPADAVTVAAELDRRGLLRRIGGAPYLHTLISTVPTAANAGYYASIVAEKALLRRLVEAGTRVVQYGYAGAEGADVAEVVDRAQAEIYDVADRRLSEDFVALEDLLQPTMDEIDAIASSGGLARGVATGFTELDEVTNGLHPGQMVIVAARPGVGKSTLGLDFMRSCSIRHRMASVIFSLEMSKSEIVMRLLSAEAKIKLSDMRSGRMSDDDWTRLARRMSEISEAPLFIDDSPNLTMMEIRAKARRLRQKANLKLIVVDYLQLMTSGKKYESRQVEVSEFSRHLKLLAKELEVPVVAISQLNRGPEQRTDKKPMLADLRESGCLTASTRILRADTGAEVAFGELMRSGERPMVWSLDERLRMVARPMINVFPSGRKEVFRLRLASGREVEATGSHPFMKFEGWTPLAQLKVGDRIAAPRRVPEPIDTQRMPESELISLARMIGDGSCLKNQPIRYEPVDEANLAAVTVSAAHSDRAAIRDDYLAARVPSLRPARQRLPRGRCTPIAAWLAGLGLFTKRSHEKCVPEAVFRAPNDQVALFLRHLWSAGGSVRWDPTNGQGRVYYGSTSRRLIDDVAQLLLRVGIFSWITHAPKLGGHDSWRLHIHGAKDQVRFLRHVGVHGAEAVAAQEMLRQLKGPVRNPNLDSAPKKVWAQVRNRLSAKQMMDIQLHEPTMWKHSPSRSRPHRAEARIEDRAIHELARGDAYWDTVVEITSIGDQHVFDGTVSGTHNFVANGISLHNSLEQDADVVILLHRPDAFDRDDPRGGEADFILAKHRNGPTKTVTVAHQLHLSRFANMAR
# [8] = molecular target: Peroxisome proliferator-activated receptor gamma/Nuclear receptor coactivator 1 (Homo sapiens, UniProt P37231); assay type: functional;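 also: agonist potency as compounds enhance coactivator SRC-1 recruitment to PPARgamma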
# [9] = cytotoxicity toward NIH3T3 fibroblasts, dose response, counter-screen, cell-based, ATP luminescence, mouse fibroblasts (AID 2010); assay type: functional;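 also: cells exposed to compound for about 90 hours before reading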
# [10] = inhibitors of intracellular T. cruzi replication, confirmation, NIH3T3 host cells, beta-gal luminescence (AID 2044); assay type: functional, cell-based;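 also: intracellular parasites grown in NIH/3T3 mouse fibroblasts as host cells; luminescent beta-galactosidase reporter signal from transgenic T. cruzi replicating inside host cells; inhibitors lower the luminescence signal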
# [11] = molecular target: Heat shock protein HSP 90-alpha (Homo sapiens, UniProt P07900); assay type: functional, organism-based
# [12] = THP-1 cell cytotoxicity, dose response, cytotoxicity control for Vif-APOBEC3G degradation inhibitor project, THP-1 cells (AID 1117359); assay type: functional; conditions: Human immunodeficiency virus 1, THP-1
# Paired box protein Pax-8 = Paired box protein Pax-8 (Homo sapiens, UniProt Q06710); assay: inhibitors of PAX8-driven TPO luciferase reporter, dose response, RMG-I cells, cherry-pick (AID 687027); assay type: functional, cell-based;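 also: luciferase reporter driven by Pax8 target thyroperoxidase promoter measured by SteadyGlo luminescence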
# [13] = cytotoxicity in OVCAR8 ovarian cancer cells, dose response, PAX8 project, cell-based, plate reader, dry powder samples (AID 743197); assay type: functional; conditions: OVCAR-8
# [14] = Luminescence Cell-Based Dose Retest to Confirm Inhibitors of Cancer Stem Cells. [Related pubchem assays (depositor defined):AID2717, AID2721]; assay type: functional; conditions: Homo sapiens
# [15] = molecular target: T4, Heat shock factor protein 1 (Mus musculus, UniProt P38532); assay: inhibition of MG132-induced HSE-luciferase signal, confirmation, cell-based, NIH3T3, luminescence, dose retest (AID 2382); assay type: functional;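 also: NIH3T3 fibroblasts with HSF1-driven luciferase reporter stressed by proteasome inhibitor MG132; luminescence from HSF1-driven luciferase expression after 8 hours of MG132 stress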
# T4 sequence (P38532 whole entry): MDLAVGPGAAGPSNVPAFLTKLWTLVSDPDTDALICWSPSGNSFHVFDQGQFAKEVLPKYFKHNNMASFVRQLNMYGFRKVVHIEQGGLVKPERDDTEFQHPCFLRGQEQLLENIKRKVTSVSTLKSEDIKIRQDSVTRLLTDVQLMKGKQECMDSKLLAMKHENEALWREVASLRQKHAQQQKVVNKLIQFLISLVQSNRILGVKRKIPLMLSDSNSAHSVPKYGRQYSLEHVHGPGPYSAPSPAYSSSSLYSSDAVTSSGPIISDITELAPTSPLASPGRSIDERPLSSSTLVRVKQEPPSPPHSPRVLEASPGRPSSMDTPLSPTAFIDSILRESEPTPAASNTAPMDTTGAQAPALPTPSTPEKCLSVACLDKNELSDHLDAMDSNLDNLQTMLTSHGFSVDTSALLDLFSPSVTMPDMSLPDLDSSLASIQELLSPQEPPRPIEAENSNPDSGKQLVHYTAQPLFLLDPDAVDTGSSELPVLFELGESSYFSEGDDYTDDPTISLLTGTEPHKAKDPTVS
# Genome polyprotein = Genome polyprotein (dengue virus type 2, UniProt P29990); assay: Dengue-2 NS5 methyltransferase inhibitors, primary screen, biochemical, confirmation dose response (AID 588689); assay type: functional
# Sequence of Genome polyprotein (P29990 2492-3391 limits assumed): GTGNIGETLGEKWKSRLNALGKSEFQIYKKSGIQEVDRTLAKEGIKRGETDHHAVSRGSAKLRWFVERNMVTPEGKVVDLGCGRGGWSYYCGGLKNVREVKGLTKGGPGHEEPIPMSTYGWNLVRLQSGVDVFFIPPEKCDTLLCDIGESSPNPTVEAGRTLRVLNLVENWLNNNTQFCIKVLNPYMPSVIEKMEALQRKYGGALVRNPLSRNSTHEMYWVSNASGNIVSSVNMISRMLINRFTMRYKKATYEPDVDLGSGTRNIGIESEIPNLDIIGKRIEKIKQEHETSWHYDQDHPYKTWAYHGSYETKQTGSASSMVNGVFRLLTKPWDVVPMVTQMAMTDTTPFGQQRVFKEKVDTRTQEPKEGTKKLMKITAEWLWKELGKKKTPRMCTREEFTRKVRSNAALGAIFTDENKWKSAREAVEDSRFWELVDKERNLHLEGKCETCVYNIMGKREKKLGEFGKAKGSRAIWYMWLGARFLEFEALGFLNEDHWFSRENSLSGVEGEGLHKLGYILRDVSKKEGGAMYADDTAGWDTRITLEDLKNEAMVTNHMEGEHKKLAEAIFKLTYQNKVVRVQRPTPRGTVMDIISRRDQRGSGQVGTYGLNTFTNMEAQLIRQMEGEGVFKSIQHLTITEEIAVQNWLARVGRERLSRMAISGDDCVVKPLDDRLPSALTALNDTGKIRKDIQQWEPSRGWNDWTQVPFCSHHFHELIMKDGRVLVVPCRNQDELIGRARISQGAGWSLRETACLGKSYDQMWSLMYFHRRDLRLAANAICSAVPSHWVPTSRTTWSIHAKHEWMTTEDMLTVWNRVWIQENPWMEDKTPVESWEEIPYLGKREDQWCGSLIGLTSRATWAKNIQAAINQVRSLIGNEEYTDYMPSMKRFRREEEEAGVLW
# Sequence of Phospholipase A2 (P04054 whole entry): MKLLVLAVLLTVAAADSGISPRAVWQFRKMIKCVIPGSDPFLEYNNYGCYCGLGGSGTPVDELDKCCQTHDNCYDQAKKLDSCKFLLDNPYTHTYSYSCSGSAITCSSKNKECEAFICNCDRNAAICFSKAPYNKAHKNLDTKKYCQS
# Sequence of Peroxisome proliferator-activated receptor gamma/Nuclear receptor coactivator 2 (P37231 whole entry): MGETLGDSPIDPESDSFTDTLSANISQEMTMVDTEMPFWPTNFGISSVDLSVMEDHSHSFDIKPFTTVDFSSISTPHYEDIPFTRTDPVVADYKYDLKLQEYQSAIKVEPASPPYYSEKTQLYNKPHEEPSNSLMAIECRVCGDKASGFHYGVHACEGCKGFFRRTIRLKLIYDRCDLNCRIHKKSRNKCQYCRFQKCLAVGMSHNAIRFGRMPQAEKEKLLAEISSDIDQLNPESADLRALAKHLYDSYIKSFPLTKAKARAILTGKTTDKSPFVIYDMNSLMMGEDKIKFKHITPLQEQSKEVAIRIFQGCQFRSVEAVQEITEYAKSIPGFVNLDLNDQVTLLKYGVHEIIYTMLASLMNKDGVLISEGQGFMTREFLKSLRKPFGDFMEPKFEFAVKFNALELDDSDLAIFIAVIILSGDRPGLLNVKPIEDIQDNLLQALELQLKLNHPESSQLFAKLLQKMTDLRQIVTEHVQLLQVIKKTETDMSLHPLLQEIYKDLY
# Sequence of Peroxisome proliferator-activated receptor gamma/Nuclear receptor coactivator 2 (Q15596 whole entry, further chain): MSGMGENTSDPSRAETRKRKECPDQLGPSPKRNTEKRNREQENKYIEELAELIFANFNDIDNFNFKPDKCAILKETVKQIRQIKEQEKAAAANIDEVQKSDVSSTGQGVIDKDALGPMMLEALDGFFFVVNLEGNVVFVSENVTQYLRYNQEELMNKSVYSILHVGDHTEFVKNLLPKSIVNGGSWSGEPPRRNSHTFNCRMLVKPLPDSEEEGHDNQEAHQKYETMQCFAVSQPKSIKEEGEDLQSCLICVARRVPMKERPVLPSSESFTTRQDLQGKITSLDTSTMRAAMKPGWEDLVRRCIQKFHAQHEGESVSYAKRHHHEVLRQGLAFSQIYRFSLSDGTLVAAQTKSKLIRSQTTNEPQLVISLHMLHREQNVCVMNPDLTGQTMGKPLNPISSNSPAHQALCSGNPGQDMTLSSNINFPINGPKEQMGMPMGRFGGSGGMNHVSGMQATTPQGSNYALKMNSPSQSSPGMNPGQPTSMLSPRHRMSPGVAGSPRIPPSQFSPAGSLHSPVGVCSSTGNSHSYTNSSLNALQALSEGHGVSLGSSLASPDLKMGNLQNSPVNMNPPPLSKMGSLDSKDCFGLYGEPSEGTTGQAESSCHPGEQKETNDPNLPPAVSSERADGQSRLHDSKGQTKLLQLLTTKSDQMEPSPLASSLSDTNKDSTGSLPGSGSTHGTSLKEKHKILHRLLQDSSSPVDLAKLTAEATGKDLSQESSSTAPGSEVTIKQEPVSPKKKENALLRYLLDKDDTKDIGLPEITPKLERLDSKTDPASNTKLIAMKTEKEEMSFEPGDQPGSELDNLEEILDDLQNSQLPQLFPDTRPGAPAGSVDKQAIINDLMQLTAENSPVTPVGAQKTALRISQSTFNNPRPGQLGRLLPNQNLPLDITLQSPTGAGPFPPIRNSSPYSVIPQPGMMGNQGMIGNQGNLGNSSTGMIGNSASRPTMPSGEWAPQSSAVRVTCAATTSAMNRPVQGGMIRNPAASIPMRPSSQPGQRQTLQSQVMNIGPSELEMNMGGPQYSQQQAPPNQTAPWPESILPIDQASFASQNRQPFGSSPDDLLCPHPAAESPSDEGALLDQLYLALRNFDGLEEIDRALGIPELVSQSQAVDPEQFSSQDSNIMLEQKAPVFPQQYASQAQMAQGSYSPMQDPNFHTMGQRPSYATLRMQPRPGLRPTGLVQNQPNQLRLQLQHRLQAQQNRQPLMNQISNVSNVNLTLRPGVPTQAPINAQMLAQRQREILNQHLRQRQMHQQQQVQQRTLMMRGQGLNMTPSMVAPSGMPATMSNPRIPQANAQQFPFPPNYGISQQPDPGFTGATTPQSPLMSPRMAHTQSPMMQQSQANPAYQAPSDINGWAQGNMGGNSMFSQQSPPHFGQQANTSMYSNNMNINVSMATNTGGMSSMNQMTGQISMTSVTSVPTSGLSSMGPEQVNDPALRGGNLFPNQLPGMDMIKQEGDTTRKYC
# Sequence of Peroxisome proliferator-activated receptor gamma/Nuclear receptor coactivator 1 (P37231 whole entry): as the sequence (P37231 whole entry) above
# Sequence of Peroxisome proliferator-activated receptor gamma/Nuclear receptor coactivator 1 (Q15788 whole entry, further chain): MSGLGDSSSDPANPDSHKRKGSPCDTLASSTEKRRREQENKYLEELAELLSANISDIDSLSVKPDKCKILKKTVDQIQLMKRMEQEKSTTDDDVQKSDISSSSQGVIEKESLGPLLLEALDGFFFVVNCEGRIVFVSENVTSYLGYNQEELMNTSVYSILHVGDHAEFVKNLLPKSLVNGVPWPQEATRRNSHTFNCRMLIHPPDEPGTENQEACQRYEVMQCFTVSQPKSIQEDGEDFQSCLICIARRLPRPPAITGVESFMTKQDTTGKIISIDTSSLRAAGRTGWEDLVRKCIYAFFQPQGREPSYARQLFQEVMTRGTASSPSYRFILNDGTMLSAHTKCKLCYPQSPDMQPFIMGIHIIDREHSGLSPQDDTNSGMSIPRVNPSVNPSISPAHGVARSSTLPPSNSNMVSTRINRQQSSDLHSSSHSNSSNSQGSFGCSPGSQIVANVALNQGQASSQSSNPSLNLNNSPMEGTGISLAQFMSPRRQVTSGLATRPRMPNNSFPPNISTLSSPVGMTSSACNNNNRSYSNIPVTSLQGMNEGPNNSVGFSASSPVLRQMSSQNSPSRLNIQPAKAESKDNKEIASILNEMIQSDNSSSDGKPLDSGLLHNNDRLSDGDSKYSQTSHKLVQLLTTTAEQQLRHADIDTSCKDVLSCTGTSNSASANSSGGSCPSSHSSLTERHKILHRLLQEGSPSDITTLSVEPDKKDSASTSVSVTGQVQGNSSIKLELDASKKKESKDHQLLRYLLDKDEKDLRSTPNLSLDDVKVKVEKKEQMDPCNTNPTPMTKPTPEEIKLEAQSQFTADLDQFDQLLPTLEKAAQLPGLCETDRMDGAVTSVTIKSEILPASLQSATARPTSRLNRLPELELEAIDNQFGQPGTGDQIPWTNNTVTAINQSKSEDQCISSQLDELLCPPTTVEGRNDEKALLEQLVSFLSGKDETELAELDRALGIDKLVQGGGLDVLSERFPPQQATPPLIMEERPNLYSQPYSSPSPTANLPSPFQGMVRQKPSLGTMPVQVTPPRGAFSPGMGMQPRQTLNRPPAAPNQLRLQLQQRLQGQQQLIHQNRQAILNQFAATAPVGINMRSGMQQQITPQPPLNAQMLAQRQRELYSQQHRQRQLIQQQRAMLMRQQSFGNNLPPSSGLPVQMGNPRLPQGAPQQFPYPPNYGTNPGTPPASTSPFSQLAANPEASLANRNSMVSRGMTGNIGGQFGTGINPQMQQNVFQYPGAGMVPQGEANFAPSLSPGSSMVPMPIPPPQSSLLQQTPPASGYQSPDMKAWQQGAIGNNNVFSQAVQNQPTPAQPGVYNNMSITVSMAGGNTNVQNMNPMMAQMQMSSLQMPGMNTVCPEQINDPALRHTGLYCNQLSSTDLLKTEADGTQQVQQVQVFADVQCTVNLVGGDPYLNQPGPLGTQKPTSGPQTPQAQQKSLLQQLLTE
structure (smiles),measurement,setting,value
CN1CCN(c2ncnc3ccc(Br)cc23)CC1,IC50,HEK293 [1],> 20 µM (inactive)
same,IC50,HEK293 [2],6.08 µM (active)
same,EC50,HEK293 [3],17.8 µM (active)
same,IC50,HEK293 [4],4.83 µM (active)
COc1ccc(C2COc3c(ccc(O)c3C)C2)cc1OC (centres undefined),GI50,SN12K1,45.8 µM (inactive)
same,GI50,P388,40.9 µM (inactive)
same,GI50,P388/ADR,35.9 µM (inactive)
CN(C)CCNC(=O)c1cccc2ccc(-c3ccc(Br)cc3)nc12,GI50,SN12K1,0.895 µM (active)
same,GI50,P388,0.374 µM (active)
same,GI50,P388/ADR,0.512 µM (active)
Cc1cccc(-n2c(-c3cccs3)nc3ccccc3c2=O)c1,IC50,Phospholipase A2,7.49 µM (active)
same,IC50,Cysteine protease ATG4B,10 µM (active)
O=C(CSc1ncnc2c1nnn2Cc1ccccc1F)N1CCN(c2ccccc2)CC1,EC50,Protein RecA,5.75 µM (active)
same,EC50,[5],> 79.4 µM (not active)
same,EC50,[6],> 79.4 µM (not active)
same,AC50,[7],3.65 µM (active)
same,EC50,[8],> 79.4 µM (not active)
O=c1c2ccccc2nc(-c2ccc(-c3ccccc3)cc2)n1-c1ccncc1,EC50,[9],> 60 µM (not active)
same,EC50,[10],0.398 µM (active)
same,AC50,[11],2.73 µM (active)
CCOc1cccc2cc(C(=O)Nc3cc(C)on3)c(=O)oc12,EC50,[5],30.1 µM (not active)
same,EC50,[6],22.4 µM (not active)
same,EC50,[8],24.6 µM (not active)
COc1ccc(NC(=O)CC2Nc3cccc4cccc(c34)NC2=O)cc1 (centres undefined),CC50,[12],> 40 µM (active)
CN1C(=O)C(N=Nc2ccccc2C(=O)O)N(C)C1=S (centres undefined),IC50,Phospholipase A2,10.3 µM (active)
same,IC50,Cysteine protease ATG4B,16.1 µM (active)
CCCC#Cc1ccc2c(c1)O[C@H](CN(C)Cc1ccccc1)[C@@H](C)CN([C@H](C)CO)S2(=O)=O,AC50,Paired box protein Pax-8,16.2 µM (active)
same,AC50,[13],58.3 µM (active)
Oc1ccc(C2=NN(c3ccccc3)C(c3ccc(F)cc3)C2)cc1 (centres undefined),AC50,[14],2.97 µM (active)
same,EC50,[15],> 195 µM (not active)
same,AC50,[11],4.34 µM (active)
CC(=O)Nc1ccc(OCC(O)CNC2CCCC2)cc1 (centres undefined),CC50,[12],> 40 µM (active)
COc1cc(OC)cc(-c2nc3ccccc3c(=O)n2OC(=O)c2ccc(C)c(C)c2)c1,IC50,Phospholipase A2,5.9 µM (active)
same,IC50,Cysteine protease ATG4B,4.38 µM (active)
COc1ccc(-c2cc(-c3cccs3)c(C#N)c(SCC(=O)NCc3ccccc3OC)n2)cc1,EC50,[5],13 µM (not active)
same,EC50,[6],8.22 µM (active)
same,EC50,[8],10.3 µM (not active)
CC(OC(=O)c1cc2sccc2n1C)C(=O)NCc1cccs1 (centres undefined),EC50,[5],> 79.4 µM (not active)
same,EC50,[6],> 79.4 µM (not active)
same,EC50,[8],> 79.4 µM (not active)
CC(=O)OCC1OC(NC(=O)N(CCCl)N=O)C(OC(C)=O)C(OC(C)=O)C1OC(C)=O (centres undefined),GI50,SN12K1,> 100 µM (inactive)
same,GI50,P388,26.7 µM (inactive)
same,GI50,P388/ADR,44.9 µM (inactive)
CC(C)(C)C(O)C(Cc1ccccc1Cl)n1cncn1 (centres undefined),AC50,[11],< 0.195 µM (active)
Cc1nn(-c2ccccn2)c2c1-c1nc(N3CCOCC3)ncc1CC2,EC50,[5],> 79.4 µM (not active)
same,EC50,[6],> 79.4 µM (not active)
same,EC50,[8],> 79.4 µM (not active)
CC(=O)OC(C)(C)/C=C/C(=O)[C@](C)(O)[C@H]1[C@H](O)C[C@@]2(C)[C@@H]3CC=C4[C@@H](C=C(O)C(=O)C4(C)C)[C@]3(C)C(=O)C[C@]12C [CUCURBITACIN E],GI50,SN12K1,0.0336 µM (active)
same,GI50,P388,0.0379 µM (active)
same,GI50,P388/ADR,0.0375 µM (active)
O=C(O)[C@H](Cc1ccccc1)N1C(=O)c2c(Cl)c(Cl)c(Cl)c(Cl)c2C1=O,IC50,Genome polyprotein,23.9 µM (active)
O=C1C=CN(C2OC(CO)C(O)C2O)C(=O)C1 (centres undefined),GI50,P388,0.718 µM (active)
same,GI50,P388/ADR,0.843 µM (active)
CCCn1c(NC(=O)c2ccco2)nc2ccccc21,CC50,[12],> 40 µM (active)
